According to US6783949B1, “Processes for determining whether a test substance contains lipases or lipase inhibitors” (Aventis Pharma Deutschland GmbH, priority 1999, dated 2004):
Read-outs that look alike come from different tables or passages of the source.

Experiments:
Format in all cases: biochemical
LPL from rat adipocytes = biological target: T1, LPL from rat adipocytes (Rattus norvegicus, UniProt Q06000); test: Cleavage of NAG by LPL; settings: for Increase in the absorption at 481 nm: 60 min, NAG 0.05 mg/ml
T1 construct: 75 μg of partially purified LPL from rat adipocytes; from tissue; host or cells: rat adipocytes
T1 sequence (Q06000 28-474): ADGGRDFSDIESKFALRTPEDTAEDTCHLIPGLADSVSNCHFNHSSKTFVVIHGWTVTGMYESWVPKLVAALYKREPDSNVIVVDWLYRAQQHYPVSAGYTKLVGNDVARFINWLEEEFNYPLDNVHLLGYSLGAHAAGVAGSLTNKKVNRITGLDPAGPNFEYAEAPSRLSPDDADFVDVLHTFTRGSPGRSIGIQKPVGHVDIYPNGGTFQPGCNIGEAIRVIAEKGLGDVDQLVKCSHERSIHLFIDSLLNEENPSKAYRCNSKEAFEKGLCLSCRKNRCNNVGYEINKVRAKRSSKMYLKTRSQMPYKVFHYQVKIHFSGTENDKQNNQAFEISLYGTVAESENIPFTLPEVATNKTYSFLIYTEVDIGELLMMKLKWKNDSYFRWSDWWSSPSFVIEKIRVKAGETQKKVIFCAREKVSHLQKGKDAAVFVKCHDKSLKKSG

bacterial lipase = test: Cleavage of NAG by bacterial lipase; settings: for Increase in the absorption at 481 nm: Bacterial lipase, 60 min, NAG 0.05 mg/ml
pancreatic lipase = biological target: T2, pancreatic lipase (Homo sapiens, UniProt P16233); test: Cleavage of NAG by pancreatic lipase; settings: for Increase in the absorption at 481 nm: Pancreatic lipase, 60 min, NAG 0.05 mg/ml
T2 sequence (P16233 17-465): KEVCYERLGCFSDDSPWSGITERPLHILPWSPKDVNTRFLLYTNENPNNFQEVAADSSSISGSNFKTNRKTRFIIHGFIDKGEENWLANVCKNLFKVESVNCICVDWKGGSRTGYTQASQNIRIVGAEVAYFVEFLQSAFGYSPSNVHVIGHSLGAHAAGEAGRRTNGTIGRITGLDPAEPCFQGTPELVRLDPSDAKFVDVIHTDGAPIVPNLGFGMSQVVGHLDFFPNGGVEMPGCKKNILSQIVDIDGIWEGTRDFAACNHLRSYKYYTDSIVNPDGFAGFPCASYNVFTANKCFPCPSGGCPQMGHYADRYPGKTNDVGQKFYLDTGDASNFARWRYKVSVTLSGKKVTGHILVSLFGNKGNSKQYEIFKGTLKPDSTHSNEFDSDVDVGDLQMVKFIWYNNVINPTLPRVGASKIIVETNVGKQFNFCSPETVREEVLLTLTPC

[1] = biological target: PC-specific phospholipase from Bacillus cereus (Bacillus cereus, UniProt P09598); settings: for Increase in the absorption at 481 nm: PLC, 60 min, NAG 0.05 mg/ml
lipases, preferably HSL = biological target: T3, lipases, preferably HSL (Rattus norvegicus, UniProt P15304); test: Synthesized NBD-acylglycerides as substrates of lipases
T3 sequence (P15304 1-768 isoform P15304-2): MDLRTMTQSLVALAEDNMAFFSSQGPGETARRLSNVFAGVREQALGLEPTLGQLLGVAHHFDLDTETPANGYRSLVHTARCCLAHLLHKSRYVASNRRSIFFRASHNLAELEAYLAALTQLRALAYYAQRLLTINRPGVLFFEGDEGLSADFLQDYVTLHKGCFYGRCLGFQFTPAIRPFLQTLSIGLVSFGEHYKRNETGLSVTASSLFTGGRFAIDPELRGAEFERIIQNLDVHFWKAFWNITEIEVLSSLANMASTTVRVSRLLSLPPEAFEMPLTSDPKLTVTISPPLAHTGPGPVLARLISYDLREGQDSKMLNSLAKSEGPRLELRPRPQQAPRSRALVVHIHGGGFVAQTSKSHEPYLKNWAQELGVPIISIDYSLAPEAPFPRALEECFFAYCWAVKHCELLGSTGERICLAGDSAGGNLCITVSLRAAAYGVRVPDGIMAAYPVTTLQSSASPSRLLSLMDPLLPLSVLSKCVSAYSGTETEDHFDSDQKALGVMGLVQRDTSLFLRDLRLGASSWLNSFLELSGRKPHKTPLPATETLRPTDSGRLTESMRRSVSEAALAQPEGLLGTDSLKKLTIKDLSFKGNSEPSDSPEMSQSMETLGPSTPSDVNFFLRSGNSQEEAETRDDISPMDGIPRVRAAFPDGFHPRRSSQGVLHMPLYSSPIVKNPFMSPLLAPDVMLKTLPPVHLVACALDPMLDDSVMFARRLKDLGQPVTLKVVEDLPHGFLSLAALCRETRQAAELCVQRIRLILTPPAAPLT

Chain of PC-specific phospholipase from Bacillus cereus (P09598 39-283 limits assumed): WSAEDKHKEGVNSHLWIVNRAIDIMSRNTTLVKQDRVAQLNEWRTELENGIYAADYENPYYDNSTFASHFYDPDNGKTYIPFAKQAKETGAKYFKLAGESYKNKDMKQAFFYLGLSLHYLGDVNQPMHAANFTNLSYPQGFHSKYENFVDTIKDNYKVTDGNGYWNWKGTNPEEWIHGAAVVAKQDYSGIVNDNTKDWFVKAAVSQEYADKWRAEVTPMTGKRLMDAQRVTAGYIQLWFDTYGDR

For `O=C(CCCCCCCCCCCNc1ccc([N+](=O)[O-])c2nonc12)OCC(O)CO` (stereo not drawn) [Compound (3)], the “Activity relative to HSL” value (LPL from rat adipocytes; conditions optimized for HSL) was ~70%, the “Increase in the absorption at 481 nm” value (LPL from rat adipocytes; enzyme 10 arb. units) was 105 ± 14 arb. units and the “Increase in the absorption at 481 nm” value (LPL from rat adipocytes; enzyme 20 arb. units) was 187 ± 17 arb. units. For the same compound, the “Increase in the absorption at 481 nm” value (LPL from rat adipocytes; enzyme 50 arb. units) was 489 ± 31 arb. units, the “Increase in the absorption at 481 nm” value (LPL from rat adipocytes; enzyme 75 arb. units) was 773 ± 56 arb. units and the “Increase in the absorption at 481 nm” value (LPL from rat adipocytes; enzyme 100 arb. units) was 948 ± 72 arb. units. The “Increase in the absorption at 481 nm” value (LPL from rat adipocytes; enzyme 150 arb. units) was 1487 ± 132 arb. units, the “Increase in the absorption at 481 nm” value (LPL from rat adipocytes; enzyme 200 arb. units) was 1952 ± 173 arb. units and the “Increase in the absorption at 481 nm” value (LPL from rat adipocytes; enzyme 250 arb. units) was 2638 ± 213 arb. units. For the same compound, the “Increase in the absorption at 481 nm” value (LPL from rat adipocytes; enzyme 300 arb. units) was 2945 ± 250 arb. units, the “Increase in the absorption at 481 nm” value (LPL from rat adipocytes; enzyme 400 arb. units) was 3512 ± 288 arb. units and the “Increase in the absorption at 481 nm” value (bacterial lipase; enzyme 10 arb. units) was 36 ± 7 arb. units. The “Increase in the absorption at 481 nm” value (bacterial lipase; enzyme 20 arb. units) was 81 ± 10 arb. units, the “Increase in the absorption at 481 nm” value (bacterial lipase; enzyme 50 arb. units) was 148 ± 18 arb. units and the “Increase in the absorption at 481 nm” value (bacterial lipase; enzyme 75 arb. units) was 238 ± 29 arb. units. The “Increase in the absorption at 481 nm” value (bacterial lipase; enzyme 100 arb. units) was 341 ± 39 arb. units, the “Increase in the absorption at 481 nm” value (bacterial lipase; enzyme 150 arb. units) was 467 ± 57 arb. units and the “Increase in the absorption at 481 nm” value (bacterial lipase; enzyme 200 arb. units) was 748 ± 70 arb. units. For the same compound, the “Increase in the absorption at 481 nm” value (bacterial lipase; enzyme 250 arb. units) was 904 ± 83 arb. units, the “Increase in the absorption at 481 nm” value (bacterial lipase; enzyme 300 arb. units) was 1056 ± 143 arb. units and the “Increase in the absorption at 481 nm” value (bacterial lipase; enzyme 400 arb. units) was 1270 ± 187 arb. units. The “Activity relative to HSL” value (bacterial lipase; bacterial lipase, conditions optimized for HSL) was 25%, the “Increase in the absorption at 481 nm” value (pancreatic lipase; enzyme 10 arb. units) was 9 ± 2 arb. units and the “Increase in the absorption at 481 nm” value (pancreatic lipase; enzyme 20 arb. units) was 14 ± 4 arb. units. The “Increase in the absorption at 481 nm” value (pancreatic lipase; enzyme 50 arb. units) was 39 ± 7 arb. units, the “Increase in the absorption at 481 nm” value (pancreatic lipase; enzyme 75 arb. units) was 64 ± 10 arb. units and the “Increase in the absorption at 481 nm” value (pancreatic lipase; enzyme 100 arb. units) was 92 ± 14 arb. units. The “Increase in the absorption at 481 nm” value (pancreatic lipase; enzyme 150 arb. units) was 140 ± 18 arb. units, the “Increase in the absorption at 481 nm” value (pancreatic lipase; enzyme 200 arb. units) was 188 ± 21 arb. units and the “Increase in the absorption at 481 nm” value (pancreatic lipase; enzyme 250 arb. units) was 234 ± 30 arb. units. For the same compound, the “Increase in the absorption at 481 nm” value (pancreatic lipase; enzyme 300 arb. units) was 265 ± 34 arb. units, the “Increase in the absorption at 481 nm” value (pancreatic lipase; enzyme 400 arb. units) was 286 ± 32 arb. units and the “Activity relative to HSL” value (pancreatic lipase; pancreatic lipase, conditions optimized for HSL) was 1%. For the same compound, the “Increase in the absorption at 481 nm” value ([1]; enzyme 10 arb. units) was 0 arb. units, the “Increase in the absorption at 481 nm” value ([1]; enzyme 20 arb. units) was 1 ± 1 arb. units and the “Increase in the absorption at 481 nm” value ([1]; enzyme 50 arb. units) was 2 ± 2 arb. units. The “Increase in the absorption at 481 nm” value ([1]; enzyme 75 arb. units) was 2 ± 1 arb. units, the “Increase in the absorption at 481 nm” value ([1]; enzyme 100 arb. units) was 3 ± 1 arb. units and the “Increase in the absorption at 481 nm” value ([1]; enzyme 150 arb. units) was 3 ± 1 arb. units. For the same compound, the “Increase in the absorption at 481 nm” value ([1]; enzyme 200 arb. units) was 5 ± 2 arb. units, the “Increase in the absorption at 481 nm” value ([1]; enzyme 250 arb. units) was 5 ± 2 arb. units and the “Increase in the absorption at 481 nm” value ([1]; enzyme 300 arb. units) was 7 ± 3 arb. units. The “Increase in the absorption at 481 nm” value ([1]; enzyme 400 arb. units) was 10 ± 3 arb. units, the “Activity relative to HSL” value ([1]; bacterial PC-specific phospholipase, conditions optimized for HSL) was “virtually inactive” and the “Activity as substrate of lipases” value (lipases, preferably HSL) was ““best” substrate”.
